# Where a SMILES comes first, the peptide text is derived from it. [ ]: non-standard residue; d: D form. The star is where a group is joined. Cbz = O=C(OCc1ccccc1)*
# Key:
# Female ICR-CD-1 mice = assay: Oral administration of absorption promoter mixed with insulin to mice: decrease in blood glucose and elevation of blood insulin versus control; format: in vivo; design: Degree of Elevation of Blood Insulin: unit not given here
# Protocol: The absorption promoter samples listed in Table 2 were dissolved or suspended in 0.5% CMC-0.05M tris-HCl buffers (pH: 7.8) and the solutions or suspensions were mixed with aqueous insulin solution. Female ICR-CD-1 mice 5 to 7 weeks old were orally administered predetermined amounts of the mixtures. A predetermined duration later, the percent decrease in blood glucose and the degree of elevation of blood insulin as compared with the control group were measured. The symbol "Z" in the structural formulas in the table represents a benzyloxycarbonyl group. The upper figures in the columns "effectiveness" represent the percent decrease in blood glucose and the lower parenthesized figures indicate the degree of elevation in blood insulin.
# Female CD-1(ICR) Mice = assay: Toxicity studies of phenylalanine derivatives (LD50); format: in vivo
# Excerpt: Toxicity Studies of Phenylalanine Derivatives with Oral IN Potentiating Activity in Female CD-1(ICR) Mice are as follows:
# Phenylalanine derivatives were suspended in 0.5% CMC.
# [1] = oral, mice, sample 3.0 mg/10 g with insulin 2.5 U/10 g body weight, 30 minutes, vs control group
# [2] = oral, mice, sample 3.0 mg/10 g with insulin 2.5 U/10 g body weight, 60 minutes, vs control group
# [3] = oral, mice, sample 6.0 mg/10 g with insulin 2.5 U/10 g body weight, 30 minutes, vs control group
# [4] = oral, mice, sample 6.0 mg/10 g with insulin 2.5 U/10 g body weight, 60 minutes, vs control group
# [5] = oral, mice, sample 12.5 mg/10 g with insulin 2.5 U/10 g body weight, 30 minutes, vs control group
# [6] = oral, mice, sample 12.5 mg/10 g with insulin 2.5 U/10 g body weight, 60 minutes, vs control group
# [7] = oral, mice, sample 3.1 mg/10 g with insulin 2.5 U/10 g body weight, 30 minutes, vs control group
# [8] = oral, mice, sample 3.1 mg/10 g with insulin 2.5 U/10 g body weight, 60 minutes, vs control group
# [9] = female CD-1(ICR) mice, suspended in 0.5% CMC
# [10] = oral, mice, sample 1.5 mg/10 g with insulin 2.5 U/10 g body weight, 30 minutes, vs control group
# [11] = oral, mice, sample 1.5 mg/10 g with insulin 2.5 U/10 g body weight, 60 minutes, vs control group
SMILES,Decrease in Blood Glucose (%) (Female ICR-CD-1 mice; [2]),Decrease in Blood Glucose (%) (Female ICR-CD-1 mice; [3]),Degree of Elevation of Blood Insulin (Female ICR-CD-1 mice; [3]),Decrease in Blood Glucose (%) (Female ICR-CD-1 mice; [4]),Degree of Elevation of Blood Insulin (Female ICR-CD-1 mice; [4]),other results
"O=C(NC(Cc1ccc(F)cc1)C(=O)N[C@@H](Cc1ccccc1)C(=O)O)OCc1ccccc1 (mixture of isomers) [Sample S-22, N-benzyloxycarbonyl-4-fluoro-DL-phenylalanyl-L-phenylalanine]",51.9,–,–,–,–,Decrease in Blood Glucose (%) (Female ICR-CD-1 mice; [1]): 63.7%
"O=C(N[C@@H](Cc1ccccc1)C(=O)NC(Cc1ccc(F)cc1)C(=O)O)OCc1ccccc1 (mixture of isomers) [Sample S-23, N-benzyloxycarbonyl-L-phenylalanyl-4-fluoro-DL-phenylalanine]",39.4,–,–,–,–,Decrease in Blood Glucose (%) (Female ICR-CD-1 mice; [1]): 67.5%
"O=C(COc1ccc([N+](=O)[O-])cc1)NC(Cc1ccc([N+](=O)[O-])cc1)C(=O)O (racemic) [Sample S-2, N-[(4-nitrophenoxy)acetyl]-4-nitro-DL-phenylalanine]",–,23.2,> 119,60.0,89.7,–
"Cc1ccc(S(=O)(=O)NC(Cc2ccccc2)C(=O)O)cc1 (racemic) [Sample S-34, N-(4-toluenesulfonyl)-DL-phenylalanine]",–,27.3,13.8,93.1,6.52,–
"O=C(Cc1cccc2ccccc12)N[C@@H](Cc1ccccc1)C(=O)O [Sample S-1, N-[(1-naphthyl)acetyl]-L-phenylalanine]",–,84.9,56.4,75.4,60.0,–
"O=C(C=Cc1ccccc1)N[C@@H](Cc1ccccc1)C(=O)O [Sample S-3, N-cinnamoyl-L-phenylalanine]",–,84.4,34.2,84.3,68.1,"LD50 (mg/kg) (Female CD-1(ICR) Mice; mouse, in vivo): > 2,500 mg/kg"
"O=C(N[C@@H](Cc1ccc(OC(=O)OCc2ccccc2)cc1)C(=O)O)OCc1ccccc1 [Sample S-4, N,O-bis-(benzyloxycarbonyl)-L-tyrosine]",31.1,–,–,–,–,Decrease in Blood Glucose (%) (Female ICR-CD-1 mice; [1]): 52.7%; Degree of Elevation of Blood Insulin (Female ICR-CD-1 mice; [1]): 6.54; Degree of Elevation of Blood Insulin (Female ICR-CD-1 mice; [2]): 2.04
"O=C(COc1ccccc1)N[C@@H](Cc1ccccc1)C(=O)O [Sample S-5, N-phenoxyacetyl-L-phenylalanine]",–,–,–,–,–,"Decrease in Blood Glucose (%) (Female ICR-CD-1 mice; [5]): 57.9%; Degree of Elevation of Blood Insulin (Female ICR-CD-1 mice; [5]): 88.5; Decrease in Blood Glucose (%) (Female ICR-CD-1 mice; [6]): 33.5%; Degree of Elevation of Blood Insulin (Female ICR-CD-1 mice; [6]): 18.0; LD50 (mg/kg) (Female CD-1(ICR) Mice; mouse, in vivo): > 4,000 mg/kg"
"O=C(COc1ccccc1)N[C@@H](Cc1ccc([N+](=O)[O-])cc1)C(=O)O [Sample S-6, N-phenoxyacetyl-4-nitro-L-phenylalanine]",–,–,–,–,–,Decrease in Blood Glucose (%) (Female ICR-CD-1 mice; [7]): 21.5%; Degree of Elevation of Blood Insulin (Female ICR-CD-1 mice; [7]): 20.6; Decrease in Blood Glucose (%) (Female ICR-CD-1 mice; [8]): 44.7%; Degree of Elevation of Blood Insulin (Female ICR-CD-1 mice; [8]): 21.8
"O=C(N[C@@H](Cc1ccccc1)C(=O)N[C@@H](Cc1ccccc1)C(=O)O)OCc1ccccc1 [Sample S-7, N-benzyloxycarbonyl-L-phenylalanyl-L-phenylalanine] (Cbz-Phe-Phe-OH)",40.6,–,–,–,–,"Decrease in Blood Glucose (%) (Female ICR-CD-1 mice; [1]): 70.0%; Degree of Elevation of Blood Insulin (Female ICR-CD-1 mice; [1]): 7.72; Degree of Elevation of Blood Insulin (Female ICR-CD-1 mice; [2]): 9.35; LD50 (mg/kg) (Female CD-1(ICR) Mice; [9]): > 3,000 mg/kg"
"O=C(CCCc1ccccc1)N[C@@H](Cc1ccccc1)C(=O)O [Sample S-8, N-(4-phenylbutyrol)-L-phenylalanine]",–,57.1,7.31,35.6,9.64,–
"O=C(COc1ccccc1)N[C@H](Cc1ccccc1)C(=O)O [Sample S-9, N-phenoxyacetyl-D-phenylalanine]",29.7,–,–,–,–,Decrease in Blood Glucose (%) (Female ICR-CD-1 mice; [1]): 37.3%; Degree of Elevation of Blood Insulin (Female ICR-CD-1 mice; [1]): 11.8; Degree of Elevation of Blood Insulin (Female ICR-CD-1 mice; [2]): 2.67
"O=C(N[C@@H](Cc1ccccc1)C(=O)N[C@@H](Cc1ccc(O)cc1)C(=O)O)OCc1ccccc1 [Sample S-10, N-benzyloxycarbonyl-L-phenylalanyl-L-tyrosine] (Cbz-Phe-Tyr-OH)",–,61.5,41.9,43.4,4.85,"LD50 (mg/kg) (Female CD-1(ICR) Mice; [9]): > 3,000 mg/kg"
"O=C(COc1cccc2ccccc12)N[C@@H](Cc1ccccc1)C(=O)O [Sample S-11, N-[(1-naphthoxy)acetyl]-L-phenylalanine]",–,54.0,11.8,59.7,5.07,"LD50 (mg/kg) (Female CD-1(ICR) Mice; mouse, in vivo): > 4,000 mg/kg"
"O=C(COc1ccc2ccccc2c1)N[C@@H](Cc1ccccc1)C(=O)O [Sample S-12, N-[(2-naphthoxy)acetyl]-L-phenylalanine]",–,50.8,6.05,66.8,5.62,"LD50 (mg/kg) (Female CD-1(ICR) Mice; mouse, in vivo): > 4,000 mg/kg"
"O=C(COc1ccc(Cl)cc1)N[C@@H](Cc1ccccc1)C(=O)O [Sample S-13, N-[(4-chlorophenoxy)acetyl]-L-phenylalanine]",–,–,–,–,–,"Decrease in Blood Glucose (%) (Female ICR-CD-1 mice; [10]): 31.9%; Degree of Elevation of Blood Insulin (Female ICR-CD-1 mice; [10]): 43.4; Decrease in Blood Glucose (%) (Female ICR-CD-1 mice; [11]): 18.5%; Degree of Elevation of Blood Insulin (Female ICR-CD-1 mice; [11]): 9.82; LD50 (mg/kg) (Female CD-1(ICR) Mice; mouse, in vivo): > 3,500 mg/kg"
"O=C(N[C@@H](Cc1ccccc1)C(=O)O)c1ccccc1 [Sample S-14, N-benzoyl-L-phenylalanine]",–,35.2,6.31,37.8,3.31,–
"O=C(N[C@@H](Cc1ccc(O)cc1)C(=O)O)OCc1ccccc1 [Sample S-16, N-benzyloxycarbonyl-L-tyrosine]",–,31.0,50.0,–,2.99,"Decrease in Blood Glucose (%) (Female ICR-CD-1 mice; po, 6 mg, 1 h): 27.2%"
"O=C(N[C@H](Cc1ccccc1)C(=O)N[C@@H](Cc1ccccc1)C(=O)O)OCc1ccccc1 [Sample S-20, N-benzyloxycarbonyl-D-phenylalanyl-L-phenylalanine] (Cbz-[dF]-Phe-OH)",–,–,–,–,–,Decrease in Blood Glucose (%) (Female ICR-CD-1 mice; [10]): 22.4%; Degree of Elevation of Blood Insulin (Female ICR-CD-1 mice; [10]): 2.33; Decrease in Blood Glucose (%) (Female ICR-CD-1 mice; [11]): 32.7%; Degree of Elevation of Blood Insulin (Female ICR-CD-1 mice; [11]): 2.46
"O=C(N[C@@H](Cc1ccccc1)C(=O)N[C@H](Cc1ccccc1)C(=O)O)OCc1ccccc1 [Sample S-21, N-benzyloxycarbonyl-L-phenylalanyl-D-phenylalanine] (Cbz-Phe-[dF]-OH)",–,42.6,14.9,32.7,5.26,–
"O=C(C=Cc1ccc(Cl)cc1)N[C@@H](Cc1ccccc1)C(=O)O [Sample S-24, N-(4-chlorocinnamoyl)-L-phenylalanine]",–,–,–,–,–,Decrease in Blood Glucose (%) (Female ICR-CD-1 mice; [10]): 37.1%; Degree of Elevation of Blood Insulin (Female ICR-CD-1 mice; [10]): 5.46; Decrease in Blood Glucose (%) (Female ICR-CD-1 mice; [11]): 27.4%; Degree of Elevation of Blood Insulin (Female ICR-CD-1 mice; [11]): 3.04
"O=C(C=Cc1ccc(Cl)cc1)N[C@H](Cc1ccccc1)C(=O)O [Sample S-25, N-(4-chlorocinnamoyl)-D-phenylalanine]",–,–,–,–,–,Decrease in Blood Glucose (%) (Female ICR-CD-1 mice; [10]): 34.9%; Decrease in Blood Glucose (%) (Female ICR-CD-1 mice; [11]): 29.5%
"Cc1ccc(C=CC(=O)N[C@@H](Cc2ccccc2)C(=O)O)cc1 [Sample S-27, N-(4-methylcinnamoyl)-L-phenylalanine]",–,–,–,–,–,Decrease in Blood Glucose (%) (Female ICR-CD-1 mice; [10]): 61.5%; Degree of Elevation of Blood Insulin (Female ICR-CD-1 mice; [10]): 7.76; Decrease in Blood Glucose (%) (Female ICR-CD-1 mice; [11]): 34.4%; Degree of Elevation of Blood Insulin (Female ICR-CD-1 mice; [11]): 1.0
"O=C(C=Cc1cccc(C(F)(F)F)c1)N[C@@H](Cc1ccccc1)C(=O)O [Sample S-30, N-(3-trifluoromethylcinnamoyl)-L-phenylalanine]",44.4,–,–,–,–,Decrease in Blood Glucose (%) (Female ICR-CD-1 mice; [1]): 48.8%
"O=C(N[C@@H](Cc1ccccc1)C(=O)O)C(F)=Cc1ccccc1 [Sample S-31, N-(α-fluorocinnamoyl)-L-phenylalanine]",72.5,–,–,–,–,Decrease in Blood Glucose (%) (Female ICR-CD-1 mice; [1]): 33.5%
"COc1cccc(C=CC(=O)N[C@@H](Cc2ccccc2)C(=O)N[C@@H](Cc2ccccc2)C(=O)O)c1 [Sample S-32, N-(3-methoxycinnamoyl)-L-phenylalanyl-L-phenylalanine]",23.8,–,–,–,–,Degree of Elevation of Blood Insulin (Female ICR-CD-1 mice; [2]): 4.55
"Cc1ccc(S(=O)(=O)N[C@@H](Cc2ccccc2)C(=O)O)cc1 [Sample S-33, N-(4-toluenesulfonyl)-L-phenylalanine]",–,51.6,18.1,21.4,6.48,–
"O=C(C=Cc1cccc(C(F)(F)F)c1)N[C@H](Cc1ccccc1)C(=O)O [Sample S-36, N-(3-trifluoromethylcinnamoyl)-D-phenylalanine]",49.1,–,–,–,–,Decrease in Blood Glucose (%) (Female ICR-CD-1 mice; [1]): 52.0%
